These results are taken from ChEMBL document CHEMBL1137458, “Discovery of novel and orally active NR2B-selective N-methyl-D-aspartate (NMDA) antagonists, pyridinol derivatives with reduced HERG binding affinity” (Bioorg Med Chem Lett, 2007).

Data set [1] concerns the target Voltage-gated inwardly rectifying potassium channel KCNH2 (Homo sapiens, UniProt Q12809). Description: Displacement of [3H]dofetilide from human HERG expressed in HEK293 cells. It is filed as cell-based. Background: Loss of bound radioactivity is the signal in a displacement assay; it reports binding, not function.
Data set [2] deals with Glutamate receptor ionotropic, NMDA 2B (Rattus norvegicus, UniProt Q00960). Description: Displacement of [3H]CP-101606 from NR2B in rat forebrain P2 membrane. Type of data set: cell membranes, Brain.
Data set [3] can be described thus: Solubility at pH 6.5. Type of data set: physicochemical. The note with it: buffer.
Data set [4] is described as follows: Metabolic stability assessed Half life in human liver microsomes. Type of data set: ADME, Microsome.
Data set [5] in a line: Bioavailability in mouse. It is filed as ADME, organism-based. The note with it: in vivo.
The target of the next data set is hERG (KCNH2) (Homo sapiens, UniProt Q12809). Briefly: Inhibition of HERG current at 30 uM.
In the next data set the test system is Mus musculus. Briefly: Antiallodynic activity in po dosed mouse partial sciatic nerve ligation model. Type of data set: functional.

Usually pIC50 stands for the IC50 on a negative log10 scale, so that one unit is a factor of ten. Higher therefore signals a low IC50. One may read the solubility as the concentration that dissolves in the medium under given conditions. What is called half-life is how long it takes for the measured level to halve. Higher therefore signals slow loss. The term bioavailability denotes dose-corrected exposure relative to a reference, in per cent. As a reminder, the inhibition is how much of the control response was suppressed.

pIC50: −log10 of the molar value. ≈ marks a conversion by molar mass, not a printed value.

Chain of Voltage-gated inwardly rectifying potassium channel KCNH2 (Q12809 whole entry): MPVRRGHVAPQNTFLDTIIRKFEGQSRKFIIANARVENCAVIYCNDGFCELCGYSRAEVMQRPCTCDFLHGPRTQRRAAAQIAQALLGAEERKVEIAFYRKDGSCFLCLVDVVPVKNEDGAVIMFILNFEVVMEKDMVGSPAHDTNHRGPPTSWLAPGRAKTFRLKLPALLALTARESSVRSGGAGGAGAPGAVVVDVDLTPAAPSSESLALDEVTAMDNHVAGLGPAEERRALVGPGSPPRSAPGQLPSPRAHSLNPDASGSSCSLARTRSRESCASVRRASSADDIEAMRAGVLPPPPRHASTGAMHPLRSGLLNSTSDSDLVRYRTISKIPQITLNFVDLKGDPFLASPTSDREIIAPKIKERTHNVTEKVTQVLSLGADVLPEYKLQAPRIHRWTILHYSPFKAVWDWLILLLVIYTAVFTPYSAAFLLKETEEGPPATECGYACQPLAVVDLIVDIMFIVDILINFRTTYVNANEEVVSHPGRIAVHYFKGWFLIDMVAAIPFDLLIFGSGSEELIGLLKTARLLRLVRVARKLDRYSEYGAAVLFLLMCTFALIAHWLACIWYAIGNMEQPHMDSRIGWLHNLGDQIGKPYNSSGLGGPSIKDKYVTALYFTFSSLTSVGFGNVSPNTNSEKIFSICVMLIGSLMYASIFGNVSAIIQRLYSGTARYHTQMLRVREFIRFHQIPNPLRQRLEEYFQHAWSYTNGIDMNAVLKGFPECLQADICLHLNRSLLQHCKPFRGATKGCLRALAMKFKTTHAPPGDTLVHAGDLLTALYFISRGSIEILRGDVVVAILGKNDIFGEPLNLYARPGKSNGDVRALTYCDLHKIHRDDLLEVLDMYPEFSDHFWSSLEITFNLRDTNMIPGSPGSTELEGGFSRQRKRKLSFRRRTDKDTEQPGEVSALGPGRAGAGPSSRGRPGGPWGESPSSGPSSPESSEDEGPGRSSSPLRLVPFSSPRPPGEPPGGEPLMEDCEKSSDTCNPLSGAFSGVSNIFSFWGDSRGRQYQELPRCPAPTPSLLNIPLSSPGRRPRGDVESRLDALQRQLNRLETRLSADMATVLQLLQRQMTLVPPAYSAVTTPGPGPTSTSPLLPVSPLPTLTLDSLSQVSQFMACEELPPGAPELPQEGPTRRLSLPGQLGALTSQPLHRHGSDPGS
Chain of Glutamate receptor ionotropic, NMDA 2B (Q00960 whole entry): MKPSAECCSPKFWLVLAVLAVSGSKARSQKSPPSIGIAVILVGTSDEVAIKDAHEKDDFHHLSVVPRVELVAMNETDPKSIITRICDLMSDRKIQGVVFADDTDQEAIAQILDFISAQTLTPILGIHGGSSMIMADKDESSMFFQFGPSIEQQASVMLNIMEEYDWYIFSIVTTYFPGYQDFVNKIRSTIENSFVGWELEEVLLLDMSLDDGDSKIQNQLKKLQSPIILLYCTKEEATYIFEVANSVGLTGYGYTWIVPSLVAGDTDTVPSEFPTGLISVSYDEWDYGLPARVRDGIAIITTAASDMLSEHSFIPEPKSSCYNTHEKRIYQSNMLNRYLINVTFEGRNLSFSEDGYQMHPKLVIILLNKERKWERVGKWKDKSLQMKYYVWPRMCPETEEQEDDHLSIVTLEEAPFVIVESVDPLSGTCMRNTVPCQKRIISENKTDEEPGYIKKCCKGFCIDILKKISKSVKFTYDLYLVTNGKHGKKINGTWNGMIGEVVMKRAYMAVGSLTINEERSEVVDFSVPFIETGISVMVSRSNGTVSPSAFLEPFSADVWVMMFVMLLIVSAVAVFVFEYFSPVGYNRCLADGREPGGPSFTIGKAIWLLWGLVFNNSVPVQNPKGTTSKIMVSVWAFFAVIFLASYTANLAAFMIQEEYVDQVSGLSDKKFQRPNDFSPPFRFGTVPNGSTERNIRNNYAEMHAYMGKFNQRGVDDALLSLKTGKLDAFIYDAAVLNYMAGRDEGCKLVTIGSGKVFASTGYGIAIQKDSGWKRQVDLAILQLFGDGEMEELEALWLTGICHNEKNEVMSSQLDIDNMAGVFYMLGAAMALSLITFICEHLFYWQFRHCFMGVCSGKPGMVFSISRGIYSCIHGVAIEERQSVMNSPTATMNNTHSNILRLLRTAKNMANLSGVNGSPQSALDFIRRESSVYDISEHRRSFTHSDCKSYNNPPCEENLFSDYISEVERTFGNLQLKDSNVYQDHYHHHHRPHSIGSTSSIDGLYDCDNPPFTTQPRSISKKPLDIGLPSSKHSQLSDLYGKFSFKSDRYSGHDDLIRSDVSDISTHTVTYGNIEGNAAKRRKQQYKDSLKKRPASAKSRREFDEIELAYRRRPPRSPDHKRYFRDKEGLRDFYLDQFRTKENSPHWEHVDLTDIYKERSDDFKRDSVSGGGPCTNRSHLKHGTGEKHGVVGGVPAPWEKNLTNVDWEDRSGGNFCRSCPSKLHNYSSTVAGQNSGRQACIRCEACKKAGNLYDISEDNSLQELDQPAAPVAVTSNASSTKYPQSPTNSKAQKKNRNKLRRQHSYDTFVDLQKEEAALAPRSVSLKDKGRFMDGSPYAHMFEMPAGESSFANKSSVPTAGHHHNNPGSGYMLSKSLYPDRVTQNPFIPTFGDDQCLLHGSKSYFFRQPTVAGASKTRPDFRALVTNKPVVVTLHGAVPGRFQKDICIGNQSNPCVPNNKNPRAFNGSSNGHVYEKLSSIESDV
Chain of hERG (KCNH2) (Q12809 whole entry): as the sequence (Q12809 whole entry) above

In data set [1], `C[C@@H]([C@@H](O)c1ccc(O)cc1)N1CCC(Cc2ccccc2)CC1` [(S)-IFENPRODIL] had a pIC50 of over 6.00.
As for `CS(=O)(=O)Nc1ccc([C@]2(O)CC[C@@H](NC(=O)CCc3ccccc3)CC2)cn1`, the negative logarithm of the IC50 (pIC50) in data set [2] is under 5.30.
`O=C1CC(Cc2ccccc2)CCN1CC(O)c1ccc(O)cc1` (stereo not drawn) showed a pIC50 in data set [1] of under 4.52.
`Cc1cc([C@]2(O)CC[C@@H](NC(=O)CCc3ccccc3)CC2)ncc1O` showed a pIC50 in data set [2] of 6.94.
`O=C(CCc1ccccc1)N[C@H]1CC[C@](O)(c2ccc(O)c(F)c2)CC1` gave a solubility in data set [3] of 17 µg/mL (≈ 47.6 µM). Also, the pIC50 in data set [2] was 7.89.
Regarding `O=C(CCc1ccccc1)N[C@H]1CC[C@](O)(c2cn[nH]c2)CC1`, in data set [2], the pIC50 was 5.61.
Still for that read-out and setting: the same measure for `Cc1cc(O)ccc1[C@H]1CC[C@H](NC(=O)CCc2ccccc2)CC1`: 6.14; for `Nc1ccc([C@]2(O)CC[C@@H](NC(=O)CCc3ccccc3)CC2)cn1`: under 5.30; for `O=C(CCc1ccccc1)N[C@H]1CC[C@](O)(c2c[nH]cn2)CC1`: under 5.30.
In the case of `O=C(CCc1ccccc1)N[C@H]1CC[C@H](c2ccc(O)c(F)c2)CC1`, the pIC50 in data set [1] (hek293) is under 5.00; in data set [2], 7.23.
In turn, `Cc1cc([C@]2(O)CC[C@@H](NC(=O)CCc3ccccc3)CC2)ccc1O` had a solubility in data set [3] of under 5 µg/mL. Besides, the figures for the negative-log IC50 (pIC50) in data set [1] (hek293) and in data set [2] were under 5.00 and 6.72, respectively.
`Cc1cc(O)ccc1[C@]1(O)CC[C@@H](NC(=O)CCc2ccccc2)CC1`: the pIC50 in data set [1] (hek293) is under 5.00; in data set [2], 7.60.
In the case of `O=C(CCc1cccnc1)N[C@H]1CC[C@H](c2ccc(O)cc2)CC1`, the pIC50 in data set [2] was under 6.00.
`CN(C)C(Cc1ccccc1)C(=O)N[C@H]1CC[C@H](c2ccc(O)cc2)CC1` (stereo partly drawn) showed a pIC50 in data set [2] of under 6.00.
For the molecule `O=C(CCc1ccccc1)N[C@H]1CC[C@](O)(c2ccc3nc[nH]c3c2)CC1`, the pIC50 in data set [2] is 5.30.
Regarding `O=C(CCc1ccccc1)N[C@H]1CC[C@H](c2ccc(O)cc2)CC1`, the solubility in data set [3] was under 5 µg/mL. This molecule also had a pIC50 in data set [2] of 7.52.
In data set [1], `O=C1CCc2cc([C@@H](O)CN3CCC(O)(c4cccc(F)c4)CC3)ccc2N1` gave a pIC50 of 5.96.
Molecule `O=C(CCc1ccccc1)N[C@H]1CC[C@](O)(c2ccc(O)cc2)CC1` showed a solubility in data set [3] of 20 µg/mL (≈ 58.9 µM). In addition, the pIC50 in data set [1] was under 4.52; in data set [2], 7.72.
As for `O=C(CCc1ccccc1)N[C@H]1CC[C@](O)(c2c[nH]c3nc(=O)oc-3c2)CC1`, the pIC50 in data set [2] was 7.07.
For `Cc1cc([C@H]2CC[C@H](NC(=O)CCc3ccccc3)CC2)ccc1O`, the pIC50 in data set [2] is under 5.30.
Turning to `O=C(N[C@H]1CC[C@H](c2ccc(O)cc2)CC1)C1Cc2ccccc2CN1` (stereo partly drawn), the concentration in solution in data set [3] (solubility) was 18 µg/mL (≈ 51.4 µM). The figures for the pIC50 in data set [1] and in data set [2] were under 4.52 and under 6.00, respectively.
On to `Cc1cnc(CCC(=O)N[C@H]2CC[C@H](c3ccc(O)cc3)CC2)s1`, for which the pIC50 in data set [1] was under 5.00; in data set [2], 7.02.
The molecule `O=C(CCc1ccccc1)N[C@H]1CC[C@](O)(c2ccc(O)cn2)CC1` came in with a half-life in data set [4] of over 1 h. In data set [5], this molecule showed a bioavailability of 27%. Also, at hERG (KCNH2), the inhibition at 30 µM was found to be 9%. Further, the MED in the data set on Mus musculus turned out to be 10 mg/kg. For the same molecule, the solubility in data set [3] was found to be 130 µg/mL (≈ 382 µM). In addition, the figures for the pIC50 in data set [1] and in data set [2] were under 4.52 and 8.00, respectively.
For the molecule `Cn1c(CCC(=O)N[C@H]2CC[C@H](c3ccc(O)cc3)CC2)nc2ccccc21`, the pIC50 in data set [2] is under 6.00.
On to `O=C(CCc1ccccn1)N[C@H]1CC[C@H](c2ccc(O)cc2)CC1`, for which the pIC50 in data set [1] is under 4.52; in data set [2], 6.07.
